Laboratory results from article PMC11477000, “Enantioselective Binding of Proton Pump Inhibitors to Alpha1-Acid Glycoprotein and Human Serum Albumin—A Chromatographic, Spectroscopic, and In Silico Study” (International Journal of Molecular Sciences, 2024).
Where “and” joins values, the source holds several entries; their conditions need not be identical. Equal entries are not always repeated.

Experiments:
[1] = system: α1-acid glycoprotein (AGP); experiment: Bound percentage by HPLC on AGP column, extrapolation to zero organic modifier; assay type: in vitro ADME, human; settings: for Bound percentage (b%), average: average of IPA, EtOH, MeOH
Procedure: Chromatographic columns containing proteins can be used to determine the percentage of drug binding. A plot of the natural logarithm of the retention factors against the proportion of organic modifiers was created. […] The intercept of these linear equations can be used to calculate the bound percentage according to Equation (4) (see in Section 3.2).
Chromatographic measurements were carried out on two separate HPLC systems. The AGP binding study was performed on a Waters 2695e chromatographic system paired with a Waters 2996 PDA detector, controlled by Empower 3 FR5 (Waters Corp., Milford, MA, USA), while the HSA binding study was performed on an Agilent 1100 HPLC system, consisting of an inline degasser (G1322A), a quaternary pump (G1311A), an automatic injector (G1329A) paired with sample thermostat (G1330A), a column thermostat (G1316A), and a diode array detector (G1315A) with Agilent Chemstation B04.03-SP2 software (Agilent, Bronnwald, Germany). For the binding studies, two protein-based chiral stationary phases were utilized. The chromatographic binding study for AGP was conducted on a ChromTech Chiral-AGP column (150 mm × 4.0 mm; ChromTech Ltd., Congleton, UK), while the binding study for HSA was performed on a Daicel Chiralpak HSA column (50 mm × 4.0 mm; Daicel Corp., Osaka, Japan). The detection wavelength was 210 nm for all measurements. The stock solutions of PPIs were prepared at a concentration of 1 mg/mL in MeOH. Subsequent dilutions were prepared using water. The injected samples were mixed and diluted from the stock solutions. The final concentration for the eutomer was 0.2 mg/mL, and for the distomer, it was 0.1 mg/mL. A volume of 2 μL was injected. To mitigate the instability of PPIs in aqueous solutions, the samples were kept at a temperature of 4 °C. […] After 24 h, new samples were prepared for injection. Chromatographic parameters were calculated based on the following equations. The retention factor (k) was calculated as:(1) k=(tr−t0)/t0 where tr is the retention time of the investigated analyte, and t0 is the dead time, determined as the first peak appearance in the chromatogram. Resolution was calculated based on the following equation:(2) Rs=2(t2−t1)/(w1+w2) where t2 and t1 are the retention times of the second and first eluted enantiomers, respectively, while w is the peak width. The separation factor (α) was calculated as follows:(3) α=k2/k1 where k1 and k2 are the retention factors of the first- and second-eluting enantiomers, respectively. The k values were also used to calculate the protein-bound percentage (b%) using Equation (4):(4) b%=k/1+k×100

AGP = experiment: UV titration (Benesi–Hildebrand) with AGP; assay type: binding, human; settings: human, pH 7.4, UV titration, n = 3; 1 μM AGP, pH 7.4 phosphate buffer, 24 °C, 278 nm; read-out: logKAGP ± Stdev (logarithm of stability constant) (converted)
Procedure: The UV-Vis absorption assay is a straightforward and relatively simple method to examine the interactions between small molecules and macromolecules. Changes in the structure of the protein caused by the interacting ligand can lead to alterations in the absorption spectrum. […] Fixed wavelength measurements were conducted at the absorption maxima of AGP and HSA. […] The change in the absorbance and wavelength maximum in the UV spectra during the titration refers to the complex formation between proteins and PPIs. The Benesi–Hildebrand method was used to determine the stability constants based on Equation (7).
The absorption spectra were recorded on a Jasco V-750 spectrophotometer (Jasco, Tokyo, Japan) at 24 °C using 1.0 cm path-length quartz cuvettes. Then, 1 μM HSA and AGP were dissolved in a sodium phosphate buffer solution (pH 7.4; 0.1 M) and their concentration was kept constant. The PPIs were dissolved in DMSO, and further diluted with the AGP or HSA solution. Next, 1000 μL of 1 μM HSA and AGP solutions was titrated with the PPI stock solution in 1 μL steps. The concentration of the PPIs was set to 4.00, 7.98, 11.96, 15.94, 19.90, 23.86, 27.81, and 31.75 μM. The binding constants were determined using the Benesi–Hildebrand equation:(7) A0/A−A0=εPPI/εAPPI−εPPI+εPPI/εAPPI−εPPI×1/K×[C] where A0 is the absorbance of the HSA or AGP at 278 nm, A is the absorbance of the formed complex also at 278 nm, εPPI is the extinction coefficient of the actual PPI, εAPPI is the extinction coefficient of the albumin or AGP and PPI complex, K is the binding coefficient, and [C] is the concentration of the investigated PPI. The plot of A0/A − A0 versus C^−1 has a slope of K^−1. All experiments were performed in triplicate.

[2] = extrapolation to zero percent EtOH
[3] = extrapolation to zero percent IPA
[4] = extrapolation to zero percent MeOH

Row | SMILES | Bound percentage (b%), average [1] | Bound percentage (b%) [1, 2] [%] | Bound percentage (b%) [1, 3] [%] | Bound percentage (b%) [1, 4] [%] | Kd (AGP) [µM]
1 | Cc1c(OCC(F)(F)F)ccnc1C[S@+]([O-])c1nc2ccccc2[nH]1 [S-lansoprazole] | 96.86% and 96.86 ± 1.79% | 96.92 | 98.62 | 95.04 | 14.8
2 | Cc1c(OCC(F)(F)F)ccnc1C[S@@+]([O-])c1nc2ccccc2[nH]1 [R-lansoprazole, dexlansoprazole] | 97.56% and 97.56 ± 1.39% | 97.60 | 98.93 | 96.16 | 27.5
